# Data published in patent US20200316208A1, “MECHANICAL PROCESSING OF BIOPOLYMERS” (SolyPlus Berlin GmbH, priority 2017, published 2020).
# Tested on: skin
# Conditions: application to skin; 0.3% (m/m) histamine dihydrochloride solution used
compound,measurement,value
"Cl.Cl.NCCc1c[nH]cn1 [histamine solution droplet, Histamine dihydrochloride]","skin reaction (swelling, reddening, itchy feeling)",No effect
